Results as given in patent publication US20200017495A1, “NOVEL HETEROCYCLIC COMPOUNDS AND THEIR USE IN PREVENTING OR TREATING BACTERIAL INFECTIONS” (priority 2017, published 2020).

What was measured:
[1] = tested on: Proteus mirabilis (PMI) isolates; experiment: microbe, parasite or virus in culture; assay type: cell-based
Method: Method 2: MIC of Compounds Alone and Combined with Antibacterials Against Bacterial Isolates
Compounds of the present invention were assessed against genotyped bacterial strains (Table 3, 4) alone or in combination with an antibacterial (Table 2). […] Log phase bacterial suspensions were adjusted to a final density of 5.10^5 CFU/mL in cation-adjusted Mueller-Hinton broth (ca-MHB; Becton-Dickinson and Company) and added to each well (98 μL). Microplates were incubated for 16-20 h at 35° C. in ambient air. The MIC of the compounds was defined as the lowest concentration of said compounds that prevented bacterial growth as read by visual inspection. The MIC of ATB at each compound concentration was defined as the lowest concentration of ATB that prevented bacterial growth as read by visual inspection.

[2] = tested on: Serratia marcescens (SMA) isolates; experiment: MIC of compounds alone and combined with antibacterials, broth microdilution (CLSI); assay type: cell-based
Method in brief: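 Log-phase isolates were inoculated at a final 5.10^5 CFU/mL in cation-adjusted Mueller-Hinton broth and incubated 16-20 h at 35° C in ambient air. MIC was the lowest concentration preventing visible growth; for combinations, the antibacterial MIC was read at each compound concentration.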

CC(C)(O/N=C(\C(=O)N[C@@H]1C(=O)N2C(C(=O)[O-])=C(C[n+]3ccccc3)CS[C@H]12)c1csc(N)n1)C(=O)O [CAZ, Ceftazidime]
MIC ATB in combination ([1]; PMI UFR82, AF2 @ 8 μg/mL): <0.25 µg/mL | MIC ATB in combination ([1]; PMI UFR82, AF3 @ 8 μg/mL): <0.25 µg/mL | MIC ATB in combination ([1]; PMI UFR126, AF2 @ 8 μg/mL): <0.25 µg/mL | MIC ATB in combination ([1]; PMI UFR126, AF3 @ 8 μg/mL): <0.25 µg/mL | MIC ATB in combination ([1]; PMI UFR127, AF2 @ 8 μg/mL): <0.25 µg/mL | MIC ATB in combination ([1]; PMI UFR127, AF3 @ 8 μg/mL): <0.25 µg/mL | MIC ATB in combination ([1]; PMI UFR128, AF2 @ 8 μg/mL): <0.25 µg/mL | MIC ATB in combination ([1]; PMI UFR128, AF3 @ 8 μg/mL): <0.25 µg/mL | MIC ATB in combination ([1]; PMI UFR129, AF2 @ 8 μg/mL): <0.25 µg/mL | MIC ATB in combination ([1]; PMI UFR129, AF3 @ 8 μg/mL): <0.25 µg/mL | MIC ATB in combination ([1]; PMI UFR130, AF2 @ 8 μg/mL): <0.25 µg/mL | MIC ATB in combination ([1]; PMI UFR130, AF3 @ 8 μg/mL): <0.25 µg/mL | MIC ATB in combination ([1]; PMI UFR133, AF2 @ 8 μg/mL): <0.25 µg/mL | MIC ATB in combination ([1]; PMI UFR133, AF3 @ 8 μg/mL): <0.25 µg/mL | MIC ATB in combination ([1]; PMI UFR237, AF2 @ 8 μg/mL): <0.25 µg/mL | MIC ATB in combination ([1]; PMI UFR237, AF3 @ 8 μg/mL): <0.25 µg/mL | MIC ([1]; strain PMI UFR82, genotype CMY-2): 4 µg/mL | MIC ([1]; strain PMI UFR120, genotype TEM-1, SHV-11, CTX-M-14): <=0.25 μg/mL | MIC ([1]; strain PMI UFR121, genotype TEM-1, TEM-52): 16 µg/mL | MIC ([1]; strain PMI UFR122, genotype TEM-1, CTX-M-15): 1 µg/mL | MIC ([1]; strain PMI UFR123, genotype CTX-M-1): 2 µg/mL | MIC ([1]; strain PMI UFR124, genotype CTX-M-2): 2 µg/mL | MIC ([1]; strain PMI UFR125, genotype CTX-M-71): 2 µg/mL | MIC ([1]; strain PMI UFR126, genotype TEM-2, PER-1): >128 µg/mL | MIC ([1]; strain PMI UFR127, genotype VEB-1): >128 µg/mL | MIC ([1]; strain PMI UFR128, genotype VEB-1, OXA-10): >128 µg/mL | MIC ([1]; strain PMI UFR129, genotype TEM-1, VEB-6): >128 µg/mL | MIC ([1]; strain PMI UFR130, genotype CMY-2): 4 µg/mL | MIC ([1]; strain PMI UFR131, genotype CMY-16, OXA-1, OXA-10, NDM-1, ArmA): >128 µg/mL | MIC ATB in combination ([1]; strain PMI UFR131, with AF2 @ 8 μg/mL): <0.25 µg/mL | MIC ATB in combination ([1]; strain PMI UFR131, with AF3 @ 8 μg/mL): <0.25 µg/mL | MIC ([1]; strain PMI UFR132, genotype VEB-6, DHA-1, NDM-1, AphA6, AacA4): >128 µg/mL | MIC ATB in combination ([1]; strain PMI UFR132, with AF2 @ 8 μg/mL): <0.25 µg/mL | MIC ATB in combination ([1]; strain PMI UFR132, with AF3 @ 8 μg/mL): <0.25 µg/mL | MIC ([1]; strain PMI UFR133, genotype OXA-23): <=0.25 μg/mL | MIC ([1]; strain PMI UFR237, genotype VEB-6): >128 µg/mL | MIC ATB in combination ([2]; SMA UFR30, AF2 @ 8 μg/mL): 0.5 µg/mL | MIC ATB in combination ([2]; SMA UFR30, AF3 @ 8 μg/mL): <=0.25 μg/mL | MIC ATB in combination ([2]; SMA UFR134, AF2 @ 8 μg/mL): <=0.25 μg/mL | MIC ATB in combination ([2]; SMA UFR134, AF3 @ 8 μg/mL): 0.5 µg/mL | MIC ATB in combination ([2]; SMA UFR135, AF2 @ 8 μg/mL): 2 µg/mL | MIC ATB in combination ([2]; SMA UFR135, AF3 @ 8 μg/mL): 4 µg/mL | MIC ATB in combination ([2]; SMA UFR136, AF2 @ 8 μg/mL): 2 µg/mL | MIC ATB in combination ([2]; SMA UFR136, AF3 @ 8 μg/mL): 1 µg/mL | MIC ATB in combination ([2]; SMA UFR137, AF2 @ 8 μg/mL): <=0.25 μg/mL | MIC ATB in combination ([2]; SMA UFR137, AF3 @ 8 μg/mL): 0.5 µg/mL | MIC ATB in combination ([2]; SMA UFR138, AF2 @ 8 μg/mL): 0.5 µg/mL | MIC ATB in combination ([2]; SMA UFR138, AF3 @ 8 μg/mL): <=0.25 μg/mL | MIC ATB in combination ([2]; SMA UFR139, AF2 @ 8 μg/mL): 1 µg/mL | MIC ATB in combination ([2]; SMA UFR139, AF3 @ 8 μg/mL): <=0.25 μg/mL | MIC ATB in combination ([2]; SMA UFR141, AF2 @ 8 μg/mL): <=0.25 μg/mL | MIC ATB in combination ([2]; SMA UFR141, AF3 @ 8 μg/mL): 0.5 µg/mL | MIC ATB in combination ([2]; SMA UFR142, AF2 @ 8 μg/mL): 0.5 µg/mL | MIC ATB in combination ([2]; SMA UFR142, AF3 @ 8 μg/mL): 0.5 µg/mL | MIC ATB in combination ([2]; SMA UFR143, AF2 @ 8 μg/mL): <=0.25 μg/mL | MIC ATB in combination ([2]; SMA UFR143, AF3 @ 8 μg/mL): <=0.25 μg/mL | MIC ATB in combination ([2]; SMA UFR239, AF2 @ 8 μg/mL): 4 µg/mL | MIC ATB in combination ([2]; SMA UFR239, AF3 @ 8 μg/mL): 0.5 µg/mL | MIC ([2]; strain SMA UFR30, genotype OXA-405): 8 µg/mL | MIC ([2]; strain SMA UFR134, genotype TEM-1, BES-1): 8 µg/mL | MIC ([2]; strain SMA UFR135, genotype TEM-1, KPC-2): 32 µg/mL | MIC ([2]; strain SMA UFR136, genotype TEM-1, SHV-12, KPC-2): >256 µg/mL | MIC ([2]; strain SMA UFR137, genotype SME-1): 0.5 µg/mL | MIC ([2]; strain SMA UFR138, genotype SME-1): <=0.25 μg/mL | MIC ([2]; strain SMA UFR139, genotype SME-2): <=0.25 μg/mL | MIC ([2]; strain SMA UFR140, genotype IMP-1): >128 µg/mL | MIC ATB in combination ([2]; strain SMA UFR140, with AF2 @ 8 μg/mL): >128 µg/mL | MIC ATB in combination ([2]; strain SMA UFR140, with AF3 @ 8 μg/mL): >128 µg/mL | MIC ([2]; strain SMA UFR141, genotype OXA-48): 1 µg/mL | MIC ([2]; strain SMA UFR142, genotype OXA-48): 0.5 µg/mL | MIC ([2]; strain SMA UFR143, genotype CTX-M-15, OXA-1, OXA-48): 64 µg/mL | MIC ([2]; strain SMA UFR238, genotype OXA-48): 0.5 µg/mL | MIC ATB in combination ([2]; strain SMA UFR238, with AF2 @ 8 μg/mL): 0.5 µg/mL | MIC ATB in combination ([2]; strain SMA UFR238, with AF3 @ 8 μg/mL): <=0.25 μg/mL | MIC ([2]; strain SMA UFR239, genotype ESAC): 32 µg/mL
